The record followed here is the Deep4Chem optical property database.

“And” between values parts separate entries of the source, which are not always exact repeats. Identical values can stand only once.

The nature of this series: solvent given as SMILES.

As to `Cc1cc(N2c3ccccc3[Si](c3ccccc3)(c3ccccc3)c3ccccc32)c(C)cc1-c1nc(-c2ccccc2)nc(-c2ccccc2)n1`, the emission maximum runs as follows: (in Cc1ccccc1) 465 nm; (in O=P(c1ccccc1)(c1ccccc1)c1ccccc1Oc1ccccc1P(=O)(c1ccccc1)c1ccccc1) 465 nm.
Consider `CC1=N/C(=C\c2ccc(N(C)C)cc2)C(=O)N1C`, for which the emission maximum (in C1CCCCC1) amounted to 437 nm; the emission maximum (in C1CCOC1) amounted to 452 nm; the emission maximum (in CC#N) was 483 nm; the emission maximum (in CO) is 492 nm; the emission maximum (in CS(C)=O) is 490 nm; the emission maximum (in ClCCl) is reported as 482 nm. This compound yielded an emission maximum (in O) of 520 nm.
In the case of `c1ccc2c(c1)-c1ccccc1C21c2cc(-c3ccc4ccc5cccc6ccc3c4c56)ccc2-c2ccc(-c3ccc4ccc5cccc6ccc3c4c56)cc21`, under “in ClC(Cl)Cl”, the emission maximum is reported as 421 nm.
On to `CCc1c(C)[nH]c(C2=[N+]3C(=Cc4c(C)cc(C)n4[B-]3(F)F)c3ccccc32)c1C`, for which the emission maximum (in C1CCOC1) came to 635 nm; the emission maximum (in CC#N) amounted to 632 nm; the emission maximum (in CCCCCC) is 630 nm; the emission maximum (in CO) amounted to 631 nm; the emission maximum (in Cc1ccccc1) is recorded as 642 nm; the emission maximum (in ClCCl) stood at 640 nm.
With `CC1(C)c2ccccc2N(c2ccc(-c3cc(-c4ccccc4)nc(-c4ccccc4)n3)cc2)c2ccccc21`, the emission maximum (in Cc1ccccc1) worked out at 475.6 nm.
Regarding `CC1(C)CC(/C=C/c2ccc(-n3cccn3)cc2)=CC(=C(C#N)C#N)C1`, the emission maximum is, setting by setting: (in C1CCOC1) 529 nm; (in CC#N) 538 nm; (in CCO) 532 nm; (in CCOC(C)=O) 526 nm; (in ClCCl) 528 nm; (in c1ccccc1) 511 nm.
For `F[B-]1(F)OC(c2ccccc2)=Cc2cc3[n+](c[n+]21)[B-](F)(F)OC(c1ccccc1)=C3`, the emission maximum (in ClCCl) is listed as 490 nm.
As for `COc1cc(Br)cc2cc(-c3cc4cc(Br)cc(OC)c4oc3=O)oc12`, the emission maximum by setting is: (in CC#N) 381 nm; (in CCOC(C)=O) 434 nm; (in CS(C)=O) 387 nm; (in Cc1ccccc1) 430 nm; (in O) 497 nm.
As for `CC1=CC(C)=[N+]2C1=C(c1ccc(C)cc1)c1c(C)cc(/C=C/c3ccc4ccc5cccc6ccc3c4c56)n1[B-]2(F)F`, the emission maximum (in CC1CCCO1) is on record as 618 nm.
Compound `S=P1(c2ccccc2)C(c2ccccc2)=Cc2cc3ccccc3cc21` (stereo unspecified) showed an emission maximum (in ClCCl) of 425 nm.
With `COc1cc2c(cc1/C=C/C(=C(C#N)C#N)c1ccccc1)c1ccccc1n2C`, the emission maximum is 568 nm (in C1CCOC1); 589 nm (in CC#N); 575 nm (in CCO); 549 nm and 548 nm (in CCOC(C)=O); 573 nm (in CN(C)C=O); 575 nm (in CO). The emission maximum is, setting by setting: (in CS(C)=O) 581 nm; (in Cc1ccccc1) 566 nm; (in ClC(Cl)Cl) 554 nm; (in ClCCl) 560 nm.
Turning to `CC1(C)C(/C=C/C2=C(Oc3ccc(CCN=C=S)cc3)C(=C/C=C3/N(CCCS(=O)(=O)[O-])c4ccccc4C3(C)C)/CCC2)=[N+](CCCS(=O)(=O)[O-])c2ccccc21`, for the setting “in CO”, the emission maximum was 794 nm.
Compound `CC(C)(C)c1ccc2c(c1)c1cc(C(C)(C)C)ccc1n2-c1ccc(C#Cc2ccc(C=O)cc2)cc1` showed an emission maximum (in ClCCl) of 528 nm.
`CCN(CC)c1ccc2c(c1)oc(=O)c1cc3cnn(-c4ccccc4)c3nc12` gave an emission maximum (in ClCCl) of 501 nm.
On the same count and under the same terms, the result for `CCCCCCCCCCCCCCCCCCOC(=O)/C=C/C1=CC2=C(c3c(C)cc(C)cc3C)c3cccn3[B-](F)(F)[N+]2=C1` reads 569 nm.
Consider `Cc1ccc2c(c1)nnn2-c1c(C#N)c2c(N)ncnc2n1[C@H]1C[C@H](O)[C@@H](CO)O1`, for which the emission maximum (in CO) was found to be 419 nm.
With `NS(=O)(=O)c1ccc(N2N=C(c3ccc(O)cc3)CC2c2ccc(F)cc2)cc1` (stereo unspecified), the emission maximum reads like this: (in C1CCOC1) 417 nm; (in C1COCCO1) 417 nm; (in CC#N) 417 nm; (in CC(C)O) 423 nm; (in CCO) 427 nm; (in CCOC(C)=O) 416 nm. Moreover, the emission maximum was 421 nm (in CN(C)C=O), 430 nm (in CO), 424 nm (in CS(C)=O) and 448 nm (in O).
Under “in CC#N”, `COc1ccc(-c2nc3ccccc3nc2/C=C/N2CCCC2)s1` showed an emission maximum of 583.94 nm.
Consider `Cc1cc(=O)c2c(ccc3ccc(O)cc32)o1`, for which, where the note is “in CC#N”, the emission maximum was 430 nm.
The compound `COC(=O)c1[nH]c(-c2ccc([N+](=O)[O-])cc2)c2nnc3ccc(OC)cc3c12` yielded an emission maximum (in ClCCl) of 549 nm.
Consider `O=S(=O)([O-])c1ccc(O)c2ccccc12`, for which the emission maximum reads like this: (in C1COCCO1) 357 nm; (in CC#N) 358 nm; (in CC(C)O) 360 nm; (in CCCCO) 361 nm; (in CCO) 360 nm; (in CCOC(C)=O) 354 nm. Moreover, the emission maximum runs as follows: (in CN(C)C=O) 366 nm; (in CO) 361 nm; (in CS(C)=O) 370 nm.
The compound `CC1(C)CC(/C=C/c2cn(-c3ccccc3)nc2-c2ccccc2)=CC(=C(C#N)C#N)C1` returned an emission maximum (in C1CCOC1) of 556 nm; an emission maximum (in C1COCCO1) of 548 nm; an emission maximum (in CCO) of 564 nm; an emission maximum (in CCOC(C)=O) of 564 nm; an emission maximum (in CN(C)C=O) of 565 nm; an emission maximum (in CO) of 561 nm. The same compound displayed an emission maximum (in CS(C)=O) of 578 nm, an emission maximum (in Cc1ccccc1) of 542 nm, an emission maximum (in ClC(Cl)Cl) of 550 nm and an emission maximum (in ClCCl) of 550 nm.
As for `CN(C)c1ccc(C(=O)c2ccccc2)cc1`, the emission maximum is recorded as 462 nm (in C1CCCCC1); 602 nm (in CC#N); 480 nm (in CO); 609 nm (in CS(C)=O); 497 nm (in c1ccccc1).
Where the note is “in CS(C)=O”, `Clc1ccc(-c2nc3sc4ccccc4c3s2)cc1` returned an emission maximum of 418 nm.
In turn, `c1ccc(-c2nc(-c3ccccc3)nc(-c3ccc(N4c5ccccc5C5(c6ccccc64)c4ccccc4C4(c6ccccc6Sc6ccccc64)c4ccccc45)cc3)n2)cc1` returned an emission maximum (in Cc1ccccc1) of 468.93 nm.
Compound `COC(=O)/C(C#N)=c1\s/c(=c2/s/c(=C(/C#N)C(=O)OC)c3cc(-c4ccccc4)sc23)c2sc(-c3ccccc3)cc12` displayed an emission maximum (in Cc1ccccc1) of 640 nm.
Regarding `CN(C)c1ccc(/C=C/c2cnc3ccccc3n2)cc1`, the emission maximum reads like this: (in C1CCOC1) 556 nm; (in CC#N) 611 nm; (in CCCCCCC) 468 nm; (in CS(C)=O) 622 nm; (in ClCCl) 570 nm.
On to `CCOC(=O)c1cc(C(=O)OCC)c2c(C)ccc(OC(=O)OC(C)(C)C)c2n1`, for which, under “in CCO”, the emission maximum amounted to 505 nm.
`COc1ccc(N(c2ccc(OC)cc2)c2ccc(-c3ccc(-c4ccc(-c5ccc(-c6ccc(N(c7ccc(OC)cc7)c7ccc(OC)cc7)cc6)s5)c5nsnc45)s3)cc2)cc1`: under “in ClC(Cl)Cl”, the emission maximum worked out at 710 nm.
On to `Cn1cc(/C=C/C(=O)c2ccccc2)c2ccccc21`, for which the emission maximum runs as follows: (in CC#N) 419.32 nm; (in CO) 446.19 nm.
Take `CCCCCCCCC1(CCCCCCCC)c2cc(-c3ccc(C=C4C(=O)c5ccccc5C4=O)cc3)ccc2-c2ccc(-c3ccc(C=C4C(=O)c5ccccc5C4=O)cc3)cc21`: the emission maximum by setting is: (in C1CCOC1) 531 nm; (in CC(C)=O) 568 nm; (in CCCCCC) 462 nm; (in CS(C)=O) 596 nm; (in Cc1ccccc1) 486 nm; (in ClC(Cl)Cl) 530 nm.
`CC(C)(C)c1ccc2c(c1)c1cc(C(C)(C)C)ccc1n2-c1ccc(N(c2ccc(-c3ccc(-c4ccc(N(c5ccc(-n6c7ccc(C(C)(C)C)cc7c7cc(C(C)(C)C)ccc76)cc5)c5ccc(-n6c7ccc(C(C)(C)C)cc7c7cc(C(C)(C)C)ccc76)cc5)cc4)s3)cc2)c2ccc(-n3c4ccc(C(C)(C)C)cc4c4cc(C(C)(C)C)ccc43)cc2)cc1`: the emission maximum (in ClCCl) is 465 nm.
On to `CCC1=C(C)C2=C(c3cc(C4=C5C(C)=C(CC)C(C)=[N+]5[B-](F)(F)n5c(C)c(CC)c(C)c54)cc(C4=C5C(C)=C(CC)C(C)=[N+]5[B-](F)(F)n5c(C)c(CC)c(C)c54)c3)c3c(C)c(CC)c(C)n3[B-](F)(F)[N+]2=C1C`, for which the emission maximum reads like this: (in C1CCOC1) 567 nm; (in CC#N) 556 nm; (in CN(C)C=O) 570 nm; (in Cc1ccccc1) 571 nm; (in ClC(Cl)Cl) 571 nm.
As to `N=c1oc2ccccc2cc1-c1ccc([N+](=O)[O-])cc1`, the emission maximum is recorded as 442 nm (in C1CCOC1), 550 nm (in CC#N), 589 nm (in CS(C)=O) and 436 nm (in ClC(Cl)Cl).
`CN(C)c1ccc(C2=CC3=C(c4ccc(C=O)cc4)[C@H]4c5ccccc5[C@]3(S2)c2ccccc24)cc1`: the emission maximum (in ClCCl) came out at 616 nm.
On to `CN(C)c1ccc(-c2c(/C=C3/C=Cc4ccccc4N3Cc3ccccc3)c(=O)c2=O)cc1`, for which the emission maximum by setting is: (in C1CCCCC1) 427 nm; (in Cc1ccccc1) 435 nm; (in ClCCl) 586 nm.
In the case of `CC1=[N+]2C(=C(c3ccc(-c4c5ccccc5c(-c5ccccc5)c5ccccc45)cc3)c3ccc(C)n3[B-]2(F)F)C=C1`, the emission maximum was 523 nm (in CC#N); 526 nm (in CCCCCC); 526 nm (in CCO); 529 nm (in CN(C)C=O); 532 nm (in Cc1ccccc1); 526 nm (in ClCCl).
